Format in all cases: cell-based, human
In test [1] the test system is DR1 and DR2 cells. The test is described as follows: CXCL8-dependent migration in Boyden chamber. Conditions: DR1 and DR2, 1 µM, 200 ng/mL CXCL8. The protocol:
Figure 8 C29 is efficient on radioresistant MB cell lines. (A) Cell death after 48 h of treatment with control (DMSO, CT) or C29 1, 2.5, or 5 µM on radiation-resistant cells (RR) and normal cells (N), n = 3. Statistics were performed using the one-way method ANOVA. * p < 0.05, ** p < 0.01, *** p < 0.001. For this figure, DR1 = D1, DR2 = D2, HR1 = H1, HR2 = H2, and C8D1A = C8. (B) Proliferation of DR1/DR2 (A) and HR1/HR2 (B) radio-resistant cells after 1 µM C29 treatment or control (DMSO), n = 3. (C) Clonogenic assay on DR1, DR2 (n = 3) and HR1, HR2 (n = 3) cells after treatment with control (DMSO) or C29 (1 µM or 2.5 µM). […] Results are expressed as percentage of control (n = 3). […]
1500 Daoy, ONS ‐76, HD ‐MB03 or D341 Med cells were sown in triplicate in plates with six wells and the cells were counted daily for 8 days using a Coulter counter (Ville‐ pinte). The relative number of cells (compared to day 1) was determined daily. […]
Y = Y0 * exp(k * X) (Y= Cell number at day X; Y0= Cell number at day 0 (graphically calculated); X= Day following cell plating (cells plated at X0=0); k= Exponential growth constant rate. Doubling times were compared.
(§1) 150 Daoy/DR1/DR2/ ONS ‐ 76 and 300 HD ‐ MB03/HR1/HR2 cells were seeded in trip‐ licate in 6‐well plates in the presence or absence of treatment (1 or 2∙5μM MCK140 or DMSO as control). […] The number of clones was quantified using ImageJ software. […]

Test [2] has as its system HR1 cells. The test is described as follows: Clonogenic assay. The protocol:
Figure 8 C29 is efficient on radioresistant MB cell lines. (A) Cell death after 48 h of treatment with control (DMSO, CT) or C29 1, 2.5, or 5 µM on radiation-resistant cells (RR) and normal cells (N), n = 3. Statistics were performed using the one-way method ANOVA. * p < 0.05, ** p < 0.01, *** p < 0.001. For this figure, DR1 = D1, DR2 = D2, HR1 = H1, HR2 = H2, and C8D1A = C8. (B) Proliferation of DR1/DR2 (A) and HR1/HR2 (B) radio-resistant cells after 1 µM C29 treatment or control (DMSO), n = 3. (C) Clonogenic assay on DR1, DR2 (n = 3) and HR1, HR2 (n = 3) cells after treatment with control (DMSO) or C29 (1 µM or 2.5 µM). (D) Cell migration through the Boyden chamber of DR1 and DR2 cells specifically attracted by 200 ng/mL CXCL8. Cells were treated with control (DMSO) or C29 (1 and 2.5 µM). Results are expressed as percentage of control (n = 3). Scale = 1000 μm. Statistics were performed using Student t-test for 2 comparisons only or ANOVA test for multiple comparisons. * p < 0.05, ** p < 0.01, *** p < 0.001. […]
each month by using PlasmoTest Kit (#10L07‐MM, InvivoGen, Toulouse, France). […]
as §1

Test [3] deals with ONS-76 cells. The test can be described thus: Pseudo-vessel formation on Matrigel. Here is the method: (§2) Figure 6 C29 inhibits the formation of pseudo vessel structures. (A) Formation of pseudo-vessels by Daoy cells, ONS-76, and HD-MB03 cultured on Matrigel and treated with Control (DMSO) or C29 (1 or 2.5 µM); n = 3. (B) Number of meshes (geometric units of the net formed by the cells on the matrigel surface) were counted with ImageJ. Statistics were performed using Student t-test for only 2 comparisons or ANOVA test for multiple comparisons. *** p < 0.001, scale = 500 μm. […]
(§3) Pseudo‐vessels formation assays
(§4) The cells were deprived of serum overnight. They were then seeded (75000 Daoy
(§5) with Matrigel Matrix, hESC‐Qualified (VWR). Plates were then incubated at 37 °C, 5%
(§6) CO2 for 24 hours. Representative images were taken with the Evos XL Core Cell Imaging
(§7) System at low magnification (4X). For each image, we determined the number of meshes
(§8) (number of geometric units of the net formed by the cells seeded on the matrigel surface). […]

In test [4] the test system is Daoy cells. The test is described as follows: Pseudo-vessel formation on Matrigel. Here is the method: as §2, §3, §4, §5, §6, §7, §8
The test system of test [5] is HD-MB03 cells. The test is described as follows: Pseudo-vessel formation on Matrigel. Conditions: HD-MB03, 1 µM. Here is the method:
as §2, §3, §4, §5, §6, §7, §8

SMILES strings stand for the structures.

In the case of `O=C(Nc1cccc(Cl)c1)Nc1nc2ccc([N+](=O)[O-])cc2s1` [C29, 1-(3-chlorophenyl)-3-(6-nitrobenzo[d]thiazol-2-yl) urea], the CXCL8-dependent migration entry in test [1] was “significantly inhibited”. Also, the Clone formation entry in test [2] (HR1, 1 µM) was “reduced the number of clones”; in test [2] (HR1, 2.5 µM), “extinguished them”. The Pseudo-vasculature formation result in test [3] (ONS-76, 1 µM) is given as “some vascular structures were retained”; in test [3] (ONS-76, 2.5 µM), “completely lost this ability”; in test [4] (1 µM) it was “inhibited this ability”; in test [4] (2.5 µM) it was “inhibited this ability”. Also, in test [5], the “Number of meshes (pseudo-vessels)” value is reported as “significantly reduced the number of meshes”.

The record behind these values is paper PMC9738107, “Targeting of the ELR+CXCL/CXCR1/2 Pathway Is a Relevant Strategy for the Treatment of Paediatric Medulloblastomas” (Cells, 2022).
